Results as given in ChEMBL document CHEMBL1201862, “PubChem BioAssay data set” (2004).
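Exposure lasted 48 hours, with cells grown in 96-well plates and compounds tested at five concentrations. GI50 is the concentration that inhibits growth by half.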 Calls of active or inactive are those of the source. Rule as the data show it: active = GI50 up to about 1.1 µM and inactive = higher.

Tests used:
Assay in all cases: NCI-60 cell line screen, 48 h
[1] = tested on: 786-0
[2] = tested on: A549
[3] = tested on: HL-60
[4] = tested on: HOP-62
[5] = tested on: HT-29
[6] = tested on: M14
[7] = tested on: MCF7
[8] = tested on: MDA-MB-231
[9] = tested on: OVCAR-5
[10] = tested on: OVCAR-8
[11] = tested on: PC-3
[12] = tested on: RPMI-8226
[13] = tested on: SK-MEL-2
[14] = tested on: SK-OV-3
[15] = tested on: SN12C
[16] = tested on: SNB-19
[17] = tested on: TK-10
[18] = tested on: NCI-H522
[19] = tested on: UO-31

Nc1nc(Cl)nc(NCc2ccccc2)n1
GI50 [1]: > 100 µM (inactive)
GI50 [2]: > 100 µM (inactive)
GI50 [3]: 48 µM (inactive)
GI50 [4]: > 100 µM (inactive)
GI50 [5]: > 100 µM (inactive)
GI50 [6]: > 100 µM (inactive)
GI50 [7]: > 100 µM (inactive)
GI50 [8]: > 100 µM (inactive)
GI50 [9]: > 100 µM (inactive)
GI50 [10]: > 100 µM (inactive)
GI50 [11]: > 100 µM (inactive)
GI50 [12]: > 100 µM (inactive)
GI50 [13]: > 100 µM (inactive)
GI50 [14]: > 100 µM (inactive)
GI50 [15]: > 100 µM (inactive)
GI50 [16]: > 100 µM (inactive)
GI50 [17]: > 100 µM (inactive)

O=S1(=O)OCCCOS(=O)(=O)C1(Br)Br
GI50 [1]: > 100 µM (inactive)
GI50 [2]: > 100 µM (inactive)
GI50 [3]: > 100 µM (inactive)
GI50 [4]: 0.743 µM (active)
GI50 [5]: > 100 µM (inactive)
GI50 [6]: > 100 µM (inactive)
GI50 [7]: > 100 µM (inactive)
GI50 [18]: > 100 µM (inactive)
GI50 [9]: > 100 µM (inactive)
GI50 [10]: > 100 µM (inactive)
GI50 [11]: > 100 µM (inactive)
GI50 [12]: > 100 µM (inactive)
GI50 [13]: > 100 µM (inactive)
GI50 [14]: > 100 µM (inactive)
GI50 [15]: > 100 µM (inactive)
GI50 [16]: > 100 µM (inactive)
GI50 [17]: > 100 µM (inactive)
GI50 [19]: > 100 µM (inactive)

CN1CCCCC(C#N)(c2ccccc2)CC1 (stereo not drawn)
GI50 [1]: > 100 µM (inactive)
GI50 [2]: > 100 µM (inactive)
GI50 [3]: > 100 µM (inactive)
GI50 [4]: > 100 µM (inactive)
GI50 [5]: > 100 µM (inactive)
GI50 [6]: > 100 µM (inactive)
GI50 [7]: > 100 µM (inactive)
GI50 [9]: > 100 µM (inactive)
GI50 [10]: > 100 µM (inactive)
GI50 [11]: > 100 µM (inactive)
GI50 [12]: > 100 µM (inactive)
GI50 [14]: > 100 µM (inactive)
GI50 [16]: > 100 µM (inactive)
GI50 [17]: > 100 µM (inactive)
GI50 [19]: > 100 µM (inactive)

O=C1/C(=C\c2cccc(Oc3ccccc3)c2)SC(c2ccccc2)N1c1cccc(Cl)c1 (stereo not drawn)
GI50 [1]: > 100 µM (inactive)
GI50 [2]: > 100 µM (inactive)
GI50 [4]: > 100 µM (inactive)
GI50 [5]: > 100 µM (inactive)
GI50 [6]: > 100 µM (inactive)
GI50 [8]: > 100 µM (inactive)
GI50 [9]: > 100 µM (inactive)
GI50 [10]: > 100 µM (inactive)
GI50 [12]: > 100 µM (inactive)
GI50 [13]: > 100 µM (inactive)
GI50 [14]: > 100 µM (inactive)
GI50 [15]: > 100 µM (inactive)
GI50 [16]: > 100 µM (inactive)
GI50 [17]: > 100 µM (inactive)
GI50 [19]: > 100 µM (inactive)

Clc1ccc(-c2ccc(-c3nnc(COc4ccc(OCc5nnc(-c6ccc(-c7ccc(Cl)cc7Cl)o6)o5)c(Cl)c4)o3)o2)c(Cl)c1
GI50 [1]: > 100 µM (inactive)
GI50 [2]: > 100 µM (inactive)
GI50 [3]: > 100 µM (inactive)
GI50 [4]: 36.6 µM (inactive)
GI50 [5]: > 100 µM (inactive)
GI50 [6]: > 100 µM (inactive)
GI50 [7]: > 100 µM (inactive)
GI50 [8]: > 100 µM (inactive)
GI50 [18]: > 100 µM (inactive)
GI50 [9]: > 100 µM (inactive)
GI50 [10]: 45.7 µM (inactive)
GI50 [12]: > 100 µM (inactive)
GI50 [13]: 25.3 µM (inactive)
GI50 [15]: > 100 µM (inactive)
GI50 [16]: 61.7 µM (inactive)
GI50 [17]: 84.5 µM (inactive)
GI50 [19]: > 100 µM (inactive)

CC12CC(c3ccccc3O1)C(C(=O)Nc1ccc(Cl)cc1Cl)C(=O)N2 (stereo not drawn)
GI50 [1]: 19.7 µM (inactive)
GI50 [2]: 23.2 µM (inactive)
GI50 [3]: 3.34 µM (inactive)
GI50 [4]: 20.1 µM (inactive)
GI50 [5]: 40.1 µM (inactive)
GI50 [6]: 18 µM (inactive)
GI50 [7]: > 100 µM (inactive)
GI50 [18]: 56.8 µM (inactive)
GI50 [9]: 29.6 µM (inactive)
GI50 [10]: 14.9 µM (inactive)
GI50 [11]: 44 µM (inactive)
GI50 [12]: 44 µM (inactive)
GI50 [13]: > 100 µM (inactive)
GI50 [14]: 73.8 µM (inactive)
GI50 [16]: 36.7 µM (inactive)
GI50 [19]: 19.2 µM (inactive)

CC(=O)N[C@@H](Cc1ccc(O)cn1)C(=O)NCc1cccc(F)c1
GI50 [1]: > 100 µM (inactive)
GI50 [2]: > 100 µM (inactive)
GI50 [3]: > 100 µM (inactive)
GI50 [4]: > 100 µM (inactive)
GI50 [5]: > 100 µM (inactive)
GI50 [6]: > 100 µM (inactive)
GI50 [7]: > 100 µM (inactive)
GI50 [18]: > 100 µM (inactive)
GI50 [9]: > 100 µM (inactive)
GI50 [11]: > 100 µM (inactive)
GI50 [12]: > 100 µM (inactive)
GI50 [13]: > 100 µM (inactive)
GI50 [14]: > 100 µM (inactive)
GI50 [15]: > 100 µM (inactive)
GI50 [16]: > 100 µM (inactive)
GI50 [17]: > 100 µM (inactive)
GI50 [19]: > 100 µM (inactive)

CCCCCCCCCCCCOCC1(COCCCCCCCCCCCC)COC(c2ccc(N)cc2)OC1
GI50 [1]: > 100 µM (inactive)
GI50 [2]: > 100 µM (inactive)
GI50 [4]: > 100 µM (inactive)
GI50 [5]: > 100 µM (inactive)
GI50 [6]: > 100 µM (inactive)
GI50 [7]: > 100 µM (inactive)
GI50 [8]: > 100 µM (inactive)
GI50 [9]: > 100 µM (inactive)
GI50 [10]: > 100 µM (inactive)
GI50 [11]: > 100 µM (inactive)
GI50 [12]: > 100 µM (inactive)
GI50 [13]: > 100 µM (inactive)
GI50 [14]: > 100 µM (inactive)
GI50 [15]: > 100 µM (inactive)
GI50 [16]: > 100 µM (inactive)
GI50 [17]: > 100 µM (inactive)
GI50 [19]: > 100 µM (inactive)

CN(C)CCN1C(=O)N(CCN(C)C)c2c3cc(O)ccc3nc3c([N+](=O)[O-])ccc1c23
GI50 [1]: 6.62 µM (inactive)
GI50 [2]: 9.12 µM (inactive)
GI50 [5]: 6.08 µM (inactive)
GI50 [8]: 10.5 µM (inactive)
GI50 [18]: 16.6 µM (inactive)
GI50 [10]: 5.55 µM (inactive)
GI50 [11]: 8.63 µM (inactive)
GI50 [12]: 14.2 µM (inactive)
GI50 [13]: 24.8 µM (inactive)
GI50 [15]: 9.2 µM (inactive)
GI50 [16]: 6.05 µM (inactive)
GI50 [17]: 10.6 µM (inactive)
GI50 [19]: 16.7 µM (inactive)

COC(=O)[C@H](CNC(=O)/C=C/c1ccc(OC(C)=O)c(OC(C)=O)c1)NC(=O)/C=C/c1ccc(OC(C)=O)c(OC(C)=O)c1
GI50 [1]: > 100 µM (inactive)
GI50 [2]: > 100 µM (inactive)
GI50 [3]: > 100 µM (inactive)
GI50 [4]: > 100 µM (inactive)
GI50 [5]: > 100 µM (inactive)
GI50 [6]: > 100 µM (inactive)
GI50 [7]: > 100 µM (inactive)
GI50 [8]: > 100 µM (inactive)
GI50 [9]: > 100 µM (inactive)
GI50 [10]: > 100 µM (inactive)
GI50 [11]: > 100 µM (inactive)
GI50 [12]: > 100 µM (inactive)
GI50 [13]: > 100 µM (inactive)
GI50 [14]: > 100 µM (inactive)
GI50 [15]: > 100 µM (inactive)
GI50 [16]: > 100 µM (inactive)

Nc1nc(-[n+]2ccc(-c3ccncc3)cc2)nc(Cl)c1Cl
GI50 [1]: 13.5 µM (inactive)
GI50 [2]: > 100 µM (inactive)
GI50 [3]: 18.6 µM (inactive)
GI50 [4]: 43 µM (inactive)
GI50 [5]: 88.5 µM (inactive)
GI50 [6]: > 100 µM (inactive)
GI50 [7]: 4.6 µM (inactive)
GI50 [8]: 35.4 µM (inactive)
GI50 [9]: > 100 µM (inactive)
GI50 [11]: 54.3 µM (inactive)
GI50 [12]: 17.2 µM (inactive)
GI50 [13]: 57.4 µM (inactive)
GI50 [14]: > 100 µM (inactive)
GI50 [15]: 20.3 µM (inactive)
GI50 [16]: 27 µM (inactive)
GI50 [17]: 26.3 µM (inactive)
GI50 [19]: 32.9 µM (inactive)

COc1cc(C2c3cc4c(cc3[C@@H](OCCN)[C@H]3COC(=O)C23)OCO4)cc(OC)c1O (stereo partly drawn)
GI50 [1]: 0.082 µM (active)
GI50 [2]: 0.0518 µM (active)
GI50 [3]: < 0.01 µM (active)
GI50 [4]: 0.069 µM (active)
GI50 [5]: 0.7 µM (active)
GI50 [6]: 0.383 µM (active)
GI50 [18]: 0.155 µM (active)
GI50 [9]: 0.644 µM (active)
GI50 [10]: 0.55 µM (active)
GI50 [13]: 0.322 µM (active)
GI50 [14]: 0.129 µM (active)
GI50 [15]: 0.107 µM (active)
GI50 [16]: 0.104 µM (active)
GI50 [17]: 2.14 µM (inactive)
GI50 [19]: 4.09 µM (inactive)
